Values belong to the molecule of their own block, whether it stands above or below them.
Columns and labels:
[1] = tested on: ceramide-activated protein phosphatase (CAPP); assay: CAPP serine/threonine phosphatase activity in vitro; type: biochemical; settings: myelin basic protein phosphorylated by protein kinase A as substrate
alkaline ceramidase = assay: Alkaline ceramidase activity in vitro at pH 9.0; type: biochemical, human; settings: final concentrations up to 50 μM
Description: Measurement of ceramidase activity in HL-60 cells. Ceramidase activity in HL-60 cells was measured by a modification of the method of Gatt and Yavin (Methods Enzymol. 14:139 (1969)). Cells were disrupted by sonication in 0.25M sucrose, 1 mM EDTA, and centrifuged at 10,000×g for 10 min after which the supernatant was centrifuged at 100,000×g for 60 min. Ten μl of 1 mM ceramide substrate ([^3 H]C16 -ceramide) was mixed with 100 μl of Triton X-100 (0.1%) in chloroform/methanol, 2:1, and 100 μl of 0.2% sodium cholate in chloroform/methanol, 2:1, after which the solvent was evaporated under N2 at 70° C. To this mixture, 30 μl of water was added and the tubes were heated for 5 s in an 80° C. water bath and then put on ice. Fifty μl of the appropriate buffer depending on desired pH was added followed by 20 μl of 50 mM MgCl2 and 100 μl of cell extract. In experiments using inhibitors, the desired inhibitor was added in ethanol either with the substrate or directly to the final solution. The reaction mixture was incubated for 1 h at 37° C. The ^3 H-fatty acid products of ceramidase were separated by the addition of 2 ml of Dole's solution (isopropyl alcohol, heptane, NaOH), 1.2 ml of heptane, and 1 ml of water. After vortexing and centrifugation, the upper phase was discarded and the lower phase was washed twice with heptane and the upper phase discarded each time. Finally, 1 ml of 1N H2 SO4, and 2 ml of heptane were added, and after vortexing and centrifugation the upper phase was transferred for counting by liquid scintillation.
In order to evaluate the interactions of D- and L-e-MAPP with ceramidase, in vitro studies we conducted using cytosolic and membrane fractions from HL-60 cells. Initially, ceramidase activity was examined for pH dependence using tritium-labeled C16 -ceramide as substrate. […] The alkaline ceramidase activity was very similar to that described in fibroblasts and cerebellar tissue (Sugita et al, Biochim. Biophys. Acta 398:125 (1975), Wertz and Downing, FEBS Lett. 268:110 (1990)). In initial studies, the ability of this ceramidase to utilize D-e- and L-e-MAPP as substrates was investigated. […] These studies corroborate the cellular metabolism studies showing that L-e-MAPP is a substrate for ceramidase in vitro and in cells.
Next, the ability of D- and L-e-MAPP to interfere with hydrolysis of C16 -ceramide by ceramidase at pH 4.5 and 9.0 was evaluated. Inhibition of ceramidase activity by D-e-MAPP was compared to that by N-oleoylethanolamine, a putative inhibitor of acid ceramidase (Sugita et al, Biochim. Biophys. Acta 398:125 (1975)). […] The effects of N-oleoylethanolamine are consistent with the previously reported Ki of 700 μM (Sugita et al, Biochim. Biophys. Acta 398:125 (1975)). […] In contrast, D-e-MAPP was a relatively poor inhibitor of acid ceramidase with less than 10% inhibition of acid ceramidase at 50 μM (FIG. 6C).

acid ceramidase [2] = target: T1, acid ceramidase (Homo sapiens, UniProt Q13510); settings: Sugita et al, Biochim. Biophys. Acta 398:125 (1975); read-out: previously reported Ki; cited from earlier work
T1 sequence (Q13510 22-395): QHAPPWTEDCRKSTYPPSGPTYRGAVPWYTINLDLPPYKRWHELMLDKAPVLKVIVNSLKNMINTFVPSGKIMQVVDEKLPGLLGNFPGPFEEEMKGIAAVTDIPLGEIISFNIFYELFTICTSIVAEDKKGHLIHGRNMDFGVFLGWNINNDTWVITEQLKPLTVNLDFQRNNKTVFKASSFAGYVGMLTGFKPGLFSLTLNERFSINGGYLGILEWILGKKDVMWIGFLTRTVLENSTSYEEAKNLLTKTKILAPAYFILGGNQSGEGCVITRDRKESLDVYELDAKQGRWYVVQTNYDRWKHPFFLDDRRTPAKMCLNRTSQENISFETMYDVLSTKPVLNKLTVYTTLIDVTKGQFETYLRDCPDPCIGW

acid ceramidase [3] = target: T1, acid ceramidase; assay: Acid ceramidase activity in vitro at pH 4.5; type: biochemical; design: Ceramidase activity was determined from total homogenates of HL-60 cells; endogenous in cells; host or cells: HL-60 cells; settings: pH 4.5, 50 μM C16-ceramide substrate
Description: Measurement of ceramidase activity in HL-60 cells. Ceramidase activity in HL-60 cells was measured by a modification of the method of Gatt and Yavin (Methods Enzymol. 14:139 (1969)). Cells were disrupted by sonication in 0.25M sucrose, 1 mM EDTA, and centrifuged at 10,000×g for 10 min after which the supernatant was centrifuged at 100,000×g for 60 min. Ten μl of 1 mM ceramide substrate ([^3 H]C16 -ceramide) was mixed with 100 μl of Triton X-100 (0.1%) in chloroform/methanol, 2:1, and 100 μl of 0.2% sodium cholate in chloroform/methanol, 2:1, after which the solvent was evaporated under N2 at 70° C. To this mixture, 30 μl of water was added and the tubes were heated for 5 s in an 80° C. water bath and then put on ice. Fifty μl of the appropriate buffer depending on desired pH was added followed by 20 μl of 50 mM MgCl2 and 100 μl of cell extract. In experiments using inhibitors, the desired inhibitor was added in ethanol either with the substrate or directly to the final solution. The reaction mixture was incubated for 1 h at 37° C. The ^3 H-fatty acid products of ceramidase were separated by the addition of 2 ml of Dole's solution (isopropyl alcohol, heptane, NaOH), 1.2 ml of heptane, and 1 ml of water. After vortexing and centrifugation, the upper phase was discarded and the lower phase was washed twice with heptane and the upper phase discarded each time. […]

[4] = target: T2, Glucosylceramide synthase (Homo sapiens, UniProt Q16739); assay: Glucocerebroside (glucosylceramide) synthase assay in vitro; type: biochemical; settings: 20 μM
T2 sequence (Q16739 1-394): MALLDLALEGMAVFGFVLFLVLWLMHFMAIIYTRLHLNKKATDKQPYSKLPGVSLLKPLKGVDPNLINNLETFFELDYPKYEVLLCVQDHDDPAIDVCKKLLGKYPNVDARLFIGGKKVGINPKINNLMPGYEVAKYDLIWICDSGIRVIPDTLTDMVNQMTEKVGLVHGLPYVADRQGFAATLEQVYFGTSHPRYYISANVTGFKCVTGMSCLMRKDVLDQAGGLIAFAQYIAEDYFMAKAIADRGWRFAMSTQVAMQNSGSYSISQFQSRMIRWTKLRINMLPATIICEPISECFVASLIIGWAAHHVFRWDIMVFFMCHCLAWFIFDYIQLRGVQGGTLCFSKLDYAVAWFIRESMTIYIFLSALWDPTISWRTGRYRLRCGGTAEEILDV
Description: Glucocerebrosidase and glucocerebroside synthase assays. In vitro assays for gluccerebrosidase and for cerebroside synthase were performed as described (Abe et al, J. Biochem. (Tokyo) 11:191 (1992)).
In addition to ceramidase, inhibition of cerebroside synthase and sphingomyelin synthase or stimulation of sphingomyelinase or cerebrosidase could result in elevations in endogenous ceramide levels. Therefore, the effects of D- and L-e-MAPP were examined on these enzyme activities in vitro and in cells.

[5] = tested on: HL-60 human myelocytic leukemia cells; assay: HL-60 cell proliferation (cell counting); type: cell-based; settings: HL-60, 3 μM D-MAPP plus fumonisin B1, 48 h
Description: Proliferation and cell cycle studies. HL-60 human myelocytic leukemia cells (obtained from the American Type Culture Collection) were grown in RPMI 1640 medium containing 10 fetal calf serum at 37° C. in 5% CO2 incubator. For proliferation and cell cycle studies, cells were resuspended at a density of 2×10^5 cells/ml in serum-free media containing insulin (5 mg/liter) and transferrin (5 mg/liter) and sodium selenite (5 μg/liter) for 2-4 h. Cells were then treated with the indicated compounds. Ethanol concentration was always maintained at less than 0.1%. Cell proliferation was determined by counting cells using a hemacytometer, cell viability was evaluated by trypan blue dye exclusion, and cell cycle analysis was determined by propidium iodide flow cytometry as described (Chao et al, J. Biol. Chem. 267:23459 (1992)).
In structure-function analysis of ceramide-mediated growth suppression using amides of phenylaminoalcohols, D- and L-erythro-MAPP were employed. In these studies, HL-60 cells were treated with 5 μM of either D-e-MAPP or L-e-MAPP, and growth was determined at the indicated time points (FIG. 2A).
Studies were conducted examining the uptake and metabolism of D- and L-MAPP. In the first set of studies, the effect of duration of exposure of HL-60 cells to D-e-MAPP on the bioactivity of the molecule was determined. D-e-MAPP added to cells could be washed off by repeated sedimentation and washing of cells. Thus, after five cycles of washing, less than 10% of D-MAPP remained associated with the cell pellet-compared to unwashed cells (FIG. 5A).

SMILES: CCCCCCCCCCCCC/C=C/[C@@H](O)[C@H](CO)NC(=O)CCCCC [C6 -ceramide, reference compound]
- activation of CAPP in vitro [1]: concentration-dependent stimulation of activity

- inhibition of alkaline ceramidase in vitro (alkaline ceramidase): less than 10%
- IC50 (acid ceramidase [3]): ~500 µM
SMILES: CCCCCCCC/C=C\CCCCCCCC(=O)NCCO [N-oleoylethanolamine, reference compound]
- Ki (acid ceramidase [2]): 700 µM

SMILES: CCCCCCCCCCCCCC(=O)NC(CN1CCOCC1)C(O)c1ccccc1 (stereo not shown) [PMMP, reference compound]
- Glucosylceramide synthase activity ([4]; Control 1.009 ± 0.0424): 0.208 ± 0.008 nmol/h/mg protein
- inhibition of cerebroside synthase activity ([4]; Table I): significant inhibition

SMILES: CCCCC(C)C(OC(=O)CC(CC(=O)O)C(=O)O)C(CC(C)CC(O)CCCCC(O)CC(O)C(C)N)OC(=O)CC(CC(=O)O)C(=O)O (stereo not shown) [fumonisin B1, reference compound]
- effect on growth suppression by D-e-MAPP [5]: did not inhibit the effects of D-e-MAPP on growth

— patent US5851782A, “Inhibitors of ceramidase” (Duke University, priority 1996, dated 1998)
